Measured values taken from PubChem BioAssay (NCI).
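Grown in 96-well plates, cells were treated for 48 hours with each compound at five concentrations. Insufficient inhibition: endpoint recorded as highest concentration tested. TGI is the concentration that stops growth completely.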

How the values were obtained:
Test in all cases: NCI tumour cell line growth inhibition, 48 h
[1] = test system: P388 leukemia
[2] = test system: SNB-75 CNS
[3] = test system: SF-268 CNS
[4] = test system: MCF7 breast
[5] = test system: HT29 colon
[6] = test system: UACC-62 melanoma
[7] = test system: DMS 273 small cell lung
[8] = test system: M19-MEL melanoma
[9] = test system: MALME-3M melanoma
[10] = test system: UO-31 renal
[11] = test system: HOP-92 NSCLC
[12] = test system: OVCAR-3 ovarian
[13] = test system: LOX IMVI melanoma
[14] = test system: KM20L2 colon
[15] = test system: SK-MEL-5 melanoma
[16] = test system: HCC-2998 colon
[17] = test system: NCI-H460 lung
[18] = test system: U251 CNS
[19] = test system: NCI-H522 lung
[20] = test system: A498 renal
[21] = test system: IGROV1 ovarian
[22] = test system: KM12 colon
[23] = test system: SF-295 CNS
[24] = test system: MOLT-4 leukemia
[25] = test system: HOP-18 NSCLC
[26] = test system: HCT-116 colon
[27] = test system: HCT-15 colon
[28] = test system: HOP-62 NSCLC
[29] = test system: SNB-78 CNS
[30] = test system: DLD-1 colon
[31] = test system: COLO 205 colon
[32] = test system: DMS 114 small cell lung
[33] = test system: OVCAR-8 ovarian
[34] = test system: SN12K1 renal
[35] = test system: HL-60(TB) leukemia
[36] = test system: RPMI-8226 leukemia
[37] = test system: SK-OV-3 ovarian
[38] = test system: OVCAR-5 ovarian
[39] = test system: P388/ADR leukemia
[40] = test system: XF 498 CNS
[41] = test system: RXF 393 renal
[42] = test system: EKVX NSCLC
[43] = test system: CAKI-1 renal
[44] = test system: SW-620 colon
[45] = test system: SF-539 CNS
[46] = test system: SK-MEL-28 melanoma
[47] = test system: NCI-H226 lung
[48] = test system: NCI-H23 lung
[49] = test system: SN12C renal
[50] = test system: CCRF-CEM leukemia
[51] = test system: K-562 leukemia
[52] = test system: A549 NSCLC
[53] = test system: UACC-257 melanoma
[54] = test system: NCI/ADR-RES ovarian
[55] = test system: SNB-19 CNS
[56] = test system: OVCAR-4 ovarian
[57] = test system: SK-MEL-2 melanoma

Measured: TGI

O=C(O)C1CCC(=O)N1S(=O)(=O)c1ccccc1 (configuration not stated)
> 100 µM: all assays above
